# Tested on: human T-bet
# Test: HEKT-bet-luc assay (normalized HEKT-bet IC50)
# Type: cell-based
# Details: Homo sapiens, HEK293, 24 h, Table 2, engineered HEK cells, compound 24 hours, normalized to reference ER-819544
# Experimental: HEKT-bet-luc assay: This assay measures a T-bet dependent reporter (luciferase) activity in engineered HEK cells that express a human T-bet and a T-box responsive element driving luciferase reporter. HEKT-bet cells were plated at 2×10^4/well in 96-well plate and compound was added into cell culture for 24 hours. Luciferase activity was measured by adding 50 μl of Steady-Glo reagent (Promega) and samples were read in Victor V reader (PerkinElmer). The activity of compound was determined by comparing compound treated samples to non-compound treated vehicle controls. The IC50 values were calculated utilizing a maximum value corresponding to the amount of luciferase in the absence of a test compound and a minimum value corresponding to a test compound value obtained at maximum inhibition.
# Determination of Normalized HEKT-bet IC50 values: Compounds were assayed in microtiter plates. Each plate included a reference compound which was ER-819544. The un-normalized IC50 value for a particular compound was divided by the IC50 value determined for the reference compound in the same microtiter plate to provide a relative potency value. The relative potency value was then multiplied by the established potency of the reference compound to provide the normalized HEKT-bet IC50 value. […] The IC50 values provided herein were obtained using this normalization method.
row,SMILES,IC50 [nM]
1,COc1cc2c(c(OC)c1)C(C)(C)C=C1N(C2)C(=O)NC12CCN(Cc1ccccc1)CC2 [compound 819667],250

# Same assay, conditions: Homo sapiens, HEK293, 24 h, Table 4, engineered HEK cells, compound 24 hours, normalized to reference ER-819544
row,SMILES,IC50 [nM]
1,"C=C(C)CN1C(=O)N2Cc3cc(OC)cc(OC)c3[C@H](C)C=C2C12CCN(Cc1cc(C)cc(C)c1)CC2 (single isomer, unassigned) [ER-820007]",1260
2,CCN1C(=O)N2Cc3cc(OC)cc(OC)c3[C@@H](C)C=C2C12CCN(Cc1cnn(C)c1C)CC2 [ER-819976-01],23
3,CCN1C(=O)N2Cc3cc(OC)cc(OC)c3[C@@H](C)C=C2C12CCN(Cc1ccc3nccn3c1)CC2 [ER-811284-01],88
4,CCN1C(=O)N2Cc3cc(OC)cc(OC)c3[C@@H](C)C=C2C12CCN(Cc1cn3ccccc3n1)CC2 [ER-811292-01],130
5,CCN1C(=O)N2Cc3cc(OC)cc(OC)c3[C@@H](C)C=C2C12CCN(Cc1cccc3nccnc13)CC2 [ER-819953-01],26
6,CCN1C(=O)N2Cc3cc(OC)cc(OC)c3[C@@H](C)C=C2C12CCN(Cc1cc(C)cc(C)c1)CC2 [ER-819762],40
7,CCN1C(=O)N2Cc3cc(OC)cc(OC)c3[C@@H](C)C=C2C12CCN(Cc1nn(C)c3ccccc13)CC2 [ER-819800-01],23
8,CCN1C(=O)N2Cc3cc(OC)cc(OC)c3[C@@H](C)C=C2C12CCN(Cc1ccc3nn(C)nc3c1)CC2 [ER-819847-01],35
9,CCN1C(=O)N2Cc3cc(OC)cc(OC)c3[C@@H](C)C=C2C12CCN(Cc1nc3ccccc3[nH]1)CC2 [ER-819965-01],130
10,CCN1C(=O)N2Cc3cc(OC)cc(OC)c3[C@@H](C)C=C2C12CCN(Cc1cc3nccnc3s1)CC2 [ER-811301-01],260
11,CCN1C(=O)N2Cc3cc(OC)cc(OC)c3[C@H](C)C=C2C12CCN(Cc1cc(C)c(F)c(C)c1)CC2 [ER-819943],> 10000
12,CCN1C(=O)N2Cc3cc(OC)cc(OC)c3[C@@H](C)C=C2C12CCN(Cc1c(C)nc3ccccn13)CC2 [ER-811305-01],31
13,CCN1C(=O)N2Cc3cc(OC)cc(OC)c3[C@@H](C)C=C2C12CCN(Cc1c[nH]nc1C)CC2 [ER-819826-01],67
14,CCN1C(=O)N2Cc3cc(OC)cc(OC)c3[C@@H](C)C=C2C12CCN(Cc1cc(C)nn1C)CC2 [ER-819973-01],30
15,CCN1C(=O)N2Cc3cc(OC)cc(OC)c3[C@@H](C)C=C2C12CCN(Cc1csnn1)CC2 [ER-811279-01],210
16,CCN1C(=O)N2Cc3cc(OC)cc(OC)c3[C@@H](C)C=C2C12CCN(Cc1cc(C)sc1C)CC2 [ER-811365-01],84
17,CCN1C(=O)N2Cc3cc(OC)cc(OC)c3[C@@H](C)C=C2C12CCN(Cc1ccn(C)c1)CC2 [ER-819961-01],96
18,CCN1C(=O)N2Cc3cc(OC)cc(OC)c3[C@@H](C)C=C2C12CCN(Cc1ccc3cc[nH]c3c1)CC2 [ER-819844-01],67
19,CCN1C(=O)N2Cc3cc(OC)cc(OC)c3[C@@H](C)C=C2C12CCN(Cc1cn3ccsc3n1)CC2 [ER-811309-01],130
20,CCN1C(=O)N2Cc3cc(OC)cc(OC)c3[C@@H](C)C=C2C12CCN(Cc1ccc3ccccc3n1)CC2 [ER-811323-01],42
21,CCN1C(=O)N2Cc3cc(OC)cc(OC)c3[C@@H](C)C=C2C12CCN(Cc1cn(C)nc1C)CC2 [ER-819971-01],34
22,CCN1C(=O)N2Cc3cc(OC)cc(OC)c3[C@@H](C)C=C2C12CCN(Cc1nc3ccccc3n1C)CC2 [ER-819926],40
